In patent publication EP0878193A1, “REMEDIES FOR HERPESVIRUS INFECTION CAUSED BY HERPESVIRUS AND PREVENTIVES FOR RECURRENCE OF THE INFECTION BOTH CONTAINING TRITERPENE DERIVATIVES AS THE ACTIVE INGREDIENT” (Showa Shell Sekiyu K.K., priority 1996, dated 1997):
In brackets after ≈: the same amount, converted by molar mass.

Legend:
[1] = test system: HSV-1, AP^r1, TK^-, HSV-2; assay: viral growth inhibition activity, plaque forming unit (PFU/mℓ) as index, 24 hours culture; format: cell-based, herpes simplex virus; details: 5, 10 or 20 µg/mℓ compared with the control (water); also drug-resistant strains AP^r and TK^-; Table 2 is an image
Method: Next, the viral growth inhibition activity was measured in the following manner making use of a plaque forming unit (PFU/mℓ) as an index. That is, each of the above-described viral strains was adsorbed to Vero cells which have been cultured into monolayer in a plastic dish of 60 mm in diameter, and the resulting cells were supplemented with 2% fetal bovine serum-added MEM medium (3 mℓ) and 3-oxo-olean-18-en-28-oic acid solution (1 mℓ) having varied concentration and cultured at 37°C for 24 hours. After 24 hours, the thus infected cells were subjected to three times of freezing-thawing and then to centrifugation (3,000 rpm, 15 minutes), and the resulting supernatant fluid was used as a virus solution to count the number of infectious viruses by the above-described plaque formation test and to calculate the plaque forming unit (PFU/mℓ) based on the counts.

[2] = test system: AP^r1; assay: plaque formation test (antiviral activity, CPE as index) on Vero cells; format: cell-based; details: Human alphaherpesvirus 1, Vero, read-out: EC50 (µg/mℓ) (average ± standard deviation), 50% plaque formation inhibition concentration, three experiments
From the text: In order to examine antiviral activity, herpes simplex virus type 1 (strain 7401 H) (referred sometimes to as "HSV-1" hereinafter), TK deficiency herpes simplex virus type 1 (strain B 2006) (referred sometimes to as "TK^-" hereinafter), phosphono acetic acid (referred to as "PAA" hereinafter) resistant herpes simplex virus type 1 (PAA resistant strain derived from 7401 H) (referred sometimes to as "AP^r1" hereinafter) and herpes simplex virus type 2 (strain Ito 1262) (referred sometimes to as "HSV-2" hereinafter) were used as viruses. […]
That is, the above-described virus solution was diluted to a concentration of 100 plaques/0.2 mℓ, the thus diluted virus solution (0.2 mℓ) was inoculated into Vero cells which have been cultured into monolayer in a plastic dish of 60 mm in diameter, and the mixture was incubated at 37°C for 1 hour to effect adsorption of viruses to the Vero cells. After the adsorption, 2% fetal bovine serum-added MEM medium (5 mℓ) containing each drug solution to be measured having varied drug concentration and 0.8% methyl cellulose was overlaid on the just described virus-adsorbed monolayer Vero cells which were subsequently cultured at 37°C for 2 to 5 days to effect plaque formation. […] The number of plaques was counted under a stereoscopic microscope. […]

[3] = test system: AP^r1; assay: viral DNA synthesis, slot-blot hybridization with radiation-labeled probe in Vero cells; format: cell-based; details: 0, 5, 10 or 20 µg/mℓ, even at 20 µg/mℓ, Fig. 2
Method: (§1) Finally, in order to examine effects of moronic acid on the viral synthesis ability, the amount of virus particles in cultured cells was measured by the slot-blot hybridization described in J. Traditional Med., 12, 187 - 194 (1995). Using a radiation-labeled probe, viral DNA synthesis ability of herpesvirus strains HSV-1 and AP^r1 was measured just after adsorption of the viruses to animal cells (Vero cells) or when concentration of 3-oxo-olean-18-en-28-oic acid (moronic acid) was changed (0, 5, 10 or 20 µg/mℓ), with the results shown as a chart in Fig. 2 (photograph).
(§2) In Fig. 2, rough amounts of each herpesvirus are shown by the strength of black parts. For the sake of comparison, DNA copy number of a virus TK^- is shown on the right-side column as a reference strength.

[4] = toxicity test in non-infected mice; format: in vivo
Method: Next, in order to examine toxicity of moronic acid, a toxicity test was carried out by administering control (water only) or 1 mg, 5 mg or 10 mg per kg mouse body weight of 3-oxo-olean-18-en-28-oic acid (moronic acid) to mice which have not been infected with viruses. Mice having a weight of 18 to 21 g/animal just before the commencement of the test were used in five animals per group. None of the mice died before completion of the test. 3-Oxo-olean-18-en-28-oic acid (moronic acid) was orally administered every day and three times a day.

[5] = test system: HSV-1; assay: viral DNA synthesis, slot-blot hybridization with radiation-labeled probe in Vero cells; format: cell-based, herpes simplex virus type 1 (strain 7401 H); details: HSV-1 in Vero cells; 0, 5, 10 or 20 µg/mℓ; even at 20 µg/mℓ; Fig. 2
Method: as §1, §2

[6] = Exp. 1, 1 mg/kg orally every day, three times a day, non-infected mice, five per group

CC1(C)C=C2[C@H]3CC[C@@H]4[C@@]5(C)CCC(=O)C(C)(C)[C@@H]5CC[C@@]4(C)[C@]3(C)CC[C@@]2(C(=O)O)CC1 [Moronic acid, 3-oxo-olean-18-en-28-oic acid]
ratio of plaques formed by each viral strain [1]: decreases
EC50 [2]: 1.6 ± 0.4 µg/mL (≈ 3.52 µM)
effect to inhibit virus DNA synthesis [3]: not found
Death rate ([4]; Exp. 1, 1 mg/kg orally every day, three times a day, non-infected mice): 0/5
(Average body weight ± standard deviation) Administration period 7 days [4, 6]: 19.8 ± 1.4
(Average body weight ± standard deviation) Administration period 36 days [4, 6]: 22.6 ± 0.8
Death rate ([4]; Exp. 1, 5 mg/kg orally every day, three times a day, non-infected mice): 0/5
Death rate ([4]; Exp. 2, 10 mg/kg orally every day, three times a day, non-infected mice): 0/5
deaths of mice ([4]; even at the maximum concentration of 10 mg/kg, after the lapse of time of 25 days): none of the five mice died
(Average body weight ± standard deviation) Administration period 7 days ([4]; mouse, in vivo, po, 5 mg/kg): 19.9 ± 1.4
(Average body weight ± standard deviation) Administration period 36 days ([4]; mouse, in vivo, po, 5 mg/kg): 21.0 ± 0.8
(Average body weight ± standard deviation) Administration period 7 days ([4]; mouse, in vivo, po, 10 mg/kg): 20.1 ± 1.2
(Average body weight ± standard deviation) Administration period 21 days ([4]; mouse, in vivo, po, 10 mg/kg): 20.4 ± 1.0
effect to inhibit virus DNA synthesis [5]: not found
